This passage reports EC50 results from patent US20250170266A1 (ZYMEWORKS BC INC., priority 2022, published 2025).

The structures appear in SMILES notation. Like-named read-outs stand apart in the source and are kept apart here.

Holding throughout (assay type): cell-based
The test system of one assay is Mouse splenocytes. In words: Mouse Splenocyte Assay, cytokine release (HTRF). The note with it: Splenocyte, 24 hours, mIL6 in supernatant, read-out: Splenocyte IL6 EC50. How it is done: Mouse splenocytes were isolated from fresh mouse spleens. Briefly, spleens were harvested from female balb/c nude mice and transferred to a 70 μm cell strainer. The cell strainer was subsequently placed in a 6-well suspension culture plate containing 5 mL media (RPMI+10% FBS). The spleens were crushed against the cell strainer using the flat end of a 10 mL syringe plunger and the cell strainer was washed with 5 mL media. The cell strainer was discarded, and the cell suspension was washed in PBS. Red blood cells were removed using PharmaLyse (BD). The cell suspension was washed in media, resuspended in CryoStor® CS10 ([…]) and frozen. On assay day, mouse splenocytes were thawed in warm assay buffer (RPMI+10% FBS). Cells were spun down and resuspended in fresh assay buffer. 100,000 cells were added to each well of plates containing test compound. For test compound preparation, each compound was initially diluted to 1 mM in DMSO and further diluted in assay buffer. A 4-fold 11-point titration starting from 15 μM was performed. Cells were incubated with test compound at 37° C.+5% CO2 for 24 hours before supernatant was harvested. Murine IL6 (mIL6) and murine TNFα (mTNFα) were quantified in the supernatant using homogeneous time resolved fluorescence (Cisbio).
(§1) Each assay included a positive control compound (referred to herein as “benchmark,” see, e.g., TABLE 3 below, and taken from International Patent Publication No. WO2017/072662, structure shown below) and a negative control (growth medium). […] The structure of the benchmark compound from International Patent Publication No. WO 2017/072662 is as follows: […]

In assay [1] the test system is Human peripheral blood mononuclear cells (PBMCs). In words: Human PBMC Assay, cytokine release (HTRF). The note with it: PBMC, 24 hours.
From the text: Human peripheral blood mononuclear cells (PBMCs) were isolated from fresh Leukopak using magnetic separation. Briefly, erythrocytes and granulocytes were magnetically labeled with Erythrocyte Depletion MicroBeads (Miltenyi Biotec) and Granulocyte Depletion MicroBeads (Miltenyi Biotec), respectively. The cell suspension was loaded onto a Multi-24 Column Block (Miltenyi Biotec) and placed in the magnetic field of a MultiMACS Cell24 Separator Plus (Miltenyi Biotec). The unlabelled PBMCs were collected in the run through. PBMCs were resuspended in CryoStor® CS10 ([…]) and frozen. On the day before the assay, PBMCs were thawed in warm assay buffer (RPMI+10% FBS) and resuspended in assay buffer+10 ng/ml hIL3 (R&D Systems). Cells were rested at 37° C.+5% CO2 overnight. The following day, cells were spun down and resuspended in fresh assay buffer. 300,000 cells were added to each well of plates containing test compound. For test compound preparation, each compound was initially diluted to 1 mM in DMSO and further diluted in assay buffer. A 4-fold 11-point titration starting from 15 μM was performed. Cells were incubated with test compound at 37° C.+5% CO2 for 24 hours before supernatant was harvested. Human interleukin 6 (hIL6), human tumor necrosis factor alpha (hTNFα), and human interferon alpha (hIFNα) were quantified in the supernatant using homogeneous time resolved fluorescence (Cisbio).
as §1

Another assay concerns the target T1, hTLR7 (Homo sapiens, UniProt Q9NYK1).
T1 construct: host or cells: HEK-Blue hTLR7 reporter cells (HEK293-derived, own knowledge)
T1 sequence (Q9NYK1 27-1049): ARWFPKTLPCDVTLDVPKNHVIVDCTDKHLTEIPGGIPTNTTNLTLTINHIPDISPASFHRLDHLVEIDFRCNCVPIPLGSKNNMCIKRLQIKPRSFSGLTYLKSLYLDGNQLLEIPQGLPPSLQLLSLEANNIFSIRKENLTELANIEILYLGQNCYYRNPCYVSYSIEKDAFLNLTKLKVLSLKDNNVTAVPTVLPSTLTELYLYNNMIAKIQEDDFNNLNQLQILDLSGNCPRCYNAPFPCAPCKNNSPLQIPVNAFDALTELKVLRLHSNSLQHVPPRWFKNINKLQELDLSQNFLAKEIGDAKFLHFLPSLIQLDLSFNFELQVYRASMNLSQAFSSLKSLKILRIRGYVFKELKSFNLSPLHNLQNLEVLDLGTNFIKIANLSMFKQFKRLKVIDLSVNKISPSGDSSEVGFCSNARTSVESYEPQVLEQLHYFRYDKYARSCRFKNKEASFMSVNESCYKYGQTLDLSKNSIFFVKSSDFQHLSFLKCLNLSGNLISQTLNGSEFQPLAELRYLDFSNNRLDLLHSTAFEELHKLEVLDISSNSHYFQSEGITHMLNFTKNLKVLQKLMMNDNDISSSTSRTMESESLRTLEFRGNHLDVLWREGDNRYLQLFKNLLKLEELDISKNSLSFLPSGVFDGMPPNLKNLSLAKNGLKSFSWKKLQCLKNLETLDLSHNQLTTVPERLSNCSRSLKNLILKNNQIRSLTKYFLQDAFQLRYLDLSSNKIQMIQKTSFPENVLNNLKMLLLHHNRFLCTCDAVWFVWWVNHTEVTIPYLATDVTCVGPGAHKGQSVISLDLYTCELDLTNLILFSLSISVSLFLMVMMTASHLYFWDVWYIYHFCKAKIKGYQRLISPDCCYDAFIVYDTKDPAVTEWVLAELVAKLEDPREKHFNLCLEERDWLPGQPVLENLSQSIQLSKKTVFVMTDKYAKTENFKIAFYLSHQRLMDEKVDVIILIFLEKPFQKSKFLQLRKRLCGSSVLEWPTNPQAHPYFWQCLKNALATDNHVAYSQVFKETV
The assay is described as follows: Reporter Gene Assay (RGA), HEK-Blue hTLR7 reporter cells, SEAP readout. The note with it: overnight incubation, SEAP absorbance 620 nm. How it is done:
(§2) 1.5×10^4 HEK-Blue™ hTLR7 (Invivogen, San Diego, CA) or HEK-Blue™ mTLR7 (Invivogen, San Diego, CA) reporter cells were treated with a titration series of test compound (4-fold titration from […], 11 points). Compounds were initially diluted to 1 mM in DMSO and subsequently serial-diluted in assay media (HEK-Blue™ Detection; Invivogen, San Diego, CA). Cells with test compound were incubated overnight at 37° C.+5% CO2, and the amount of secreted embryonic alkaline phosphatase (SEAP) was determined by measuring absorbance (620 nm) using a Synergy™ H1 microplate reader.
as §1

The target of another assay is T2, mTLR7 (Mus musculus, UniProt P58681).
T2 construct: host or cells: HEK-Blue mTLR7 reporter cells (HEK293-derived, own knowledge)
T2 sequence (P58681 27-1050): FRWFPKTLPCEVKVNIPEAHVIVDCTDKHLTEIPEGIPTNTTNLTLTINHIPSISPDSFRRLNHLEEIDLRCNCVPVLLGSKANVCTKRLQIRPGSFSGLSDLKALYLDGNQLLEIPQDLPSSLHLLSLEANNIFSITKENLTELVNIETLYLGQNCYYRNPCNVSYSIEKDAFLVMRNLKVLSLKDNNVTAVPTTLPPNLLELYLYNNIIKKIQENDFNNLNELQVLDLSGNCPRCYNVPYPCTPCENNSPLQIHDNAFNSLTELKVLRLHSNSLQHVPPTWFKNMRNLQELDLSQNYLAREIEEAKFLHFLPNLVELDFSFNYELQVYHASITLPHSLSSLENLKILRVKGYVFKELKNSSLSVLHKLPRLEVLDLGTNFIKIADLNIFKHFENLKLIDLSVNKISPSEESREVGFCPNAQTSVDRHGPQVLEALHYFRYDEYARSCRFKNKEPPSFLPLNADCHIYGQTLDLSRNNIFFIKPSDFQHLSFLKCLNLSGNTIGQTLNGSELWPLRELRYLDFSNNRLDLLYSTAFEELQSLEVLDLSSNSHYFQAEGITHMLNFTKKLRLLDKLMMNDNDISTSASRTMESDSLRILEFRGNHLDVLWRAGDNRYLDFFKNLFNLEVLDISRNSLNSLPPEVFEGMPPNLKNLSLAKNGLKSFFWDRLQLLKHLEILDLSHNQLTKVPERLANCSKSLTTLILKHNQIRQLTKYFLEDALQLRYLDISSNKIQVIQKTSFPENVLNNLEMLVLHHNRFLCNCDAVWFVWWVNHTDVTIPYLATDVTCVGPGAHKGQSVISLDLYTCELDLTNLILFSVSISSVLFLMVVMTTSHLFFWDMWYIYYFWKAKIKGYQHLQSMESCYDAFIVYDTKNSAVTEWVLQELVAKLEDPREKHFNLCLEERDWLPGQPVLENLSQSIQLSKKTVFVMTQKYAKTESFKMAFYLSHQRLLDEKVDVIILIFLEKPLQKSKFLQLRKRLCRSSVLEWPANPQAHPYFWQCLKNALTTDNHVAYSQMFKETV
In words: Reporter Gene Assay (RGA), HEK-Blue mTLR7 reporter cells, SEAP readout. To be noted: overnight incubation, SEAP absorbance 620 nm. How it is done:
as §2, §1

Setting [2] is: hIFNα in supernatant, EC50 values approximated and divided into groups, read-out: PBMC IFNa EC50.
[3] abbreviates: hIL6 in supernatant, read-out: PBMC IL6 EC50.

On to `CCOc1nc(N)c2nc(O)n(Cc3ccc(CNCc4ccc(CN)cc4)cc3OC)c2n1` [Compound 105, 6-amino-9-(4-(((4-(aminomethyl)benzyl)amino)methyl)-2-methoxybenzyl)-2-ethoxy-9H-purin-8-ol], for which the EC50 is 26.2 nM in the assay with Mouse splenocytes; below 0.1 nM in assay [1] (setting [2]); 394 nM in assay [1] (setting [3]); 7 nM on hTLR7; 2.4 nM at mTLR7.

`CCOc1nc(N)c2nc(O)n(Cc3ccc(CNCCCCN)cc3OC)c2n1` [Compound 106, 6-amino-9-(4-(((4-aminobutyl)amino)methyl)-2-methoxybenzyl)-2-ethoxy-9H-purin-8-ol]: the EC50 in the assay with Mouse splenocytes is 2060 nM; in assay [1] (setting [2]), 1 to 10 nM; in assay [1] (setting [3]) it was 688 nM; at hTLR7, 348 nM; at mTLR7 it was 94.1 nM.

As to `CCOc1nc(N)c2nc(O)n(Cc3ccc(CNCc4ccccc4)cc3OC)c2n1` [Compound 107, 6-amino-9-(4-((benzylamino)methyl)-2-methoxybenzyl)-2-ethoxy-9H-purin-8-ol], the EC50 in the assay on Mouse splenocytes is 33.3 nM; in assay [1] (setting [2]) it was 0.1 to 1 nM; in assay [1] (setting [3]), 2720 nM; on hTLR7, 13 nM; on mTLR7 it was 0.3 nM.

With `CCOc1nc(N)c2nc(O)n(Cc3ccc(CNC4CCC4)cc3OC)c2n1` [Compound 108, 6-amino-9-(4-((cyclobutylamino)methyl)-2-methoxybenzyl)-2-ethoxy-9H-purin-8-ol], the EC50 in the assay on Mouse splenocytes was 71.9 nM; in assay [1] (setting [2]), below 0.1 nM; in assay [1] (setting [3]), 564 nM; on hTLR7, 6 nM; at mTLR7, 5 nM.

As for `CCOc1nc(N)c2nc(O)n(Cc3ccc(CNC4CC(F)(F)C4)cc3OC)c2n1` [Compound 109, 6-amino-9-(4-(((3,3-difluorocyclobutyl)amino)methyl)-2-methoxybenzyl)-2-ethoxy-9H-purin-8-ol], the EC50 in the assay with Mouse splenocytes is 166 nM; in assay [1] (setting [2]), 1 to 10 nM; in assay [1] (setting [3]), 456 nM; at hTLR7 it was 56 nM; at mTLR7, 13.1 nM.

In the case of `CCOc1nc(N)c2nc(O)n(Cc3ccc(CN4CCC(N)CC4)cc3OC)c2n1` [Compound 110, 6-amino-9-(4-((4-aminopiperidin-1-yl)methyl)-2-methoxybenzyl)-2-ethoxy-9H-purin-8-ol], the EC50 in the assay on Mouse splenocytes was at least 1000 nM; in assay [1] (setting [2]) it was 1 to 10 nM; in assay [1] (setting [3]) it was 937 nM; on hTLR7, 112 nM; at mTLR7, 184 nM.

On to `CCOc1nc(N)c2nc(O)n(Cc3ccc(CNCCN)cc3OC)c2n1` [Compound 111, 6-amino-9-(4-(((2-aminoethyl)amino)methyl)-2-methoxybenzyl)-2-ethoxy-9H-purin-8-ol], for which the EC50 in the assay on Mouse splenocytes is 20.8 nM; in assay [1] (setting [2]), 1 to 10 nM; in assay [1] (setting [3]), 531 nM; on hTLR7, 102 nM; on mTLR7, 86.9 nM.

On to `CCOc1nc(N)c2nc(O)n(Cc3ccc(CN4CCN(CCNC(=O)CC(SC[C@@H](N)C(=O)O)C(=O)O)CC4)cc3OC)c2n1` (stereo partly drawn) [Compound 113, 2-(((S)-2-amino-2-carboxyethyl)thio)-4-((2-(4-(4-((6-amino-2-ethoxy-8-hydroxy-9H-purin-9-yl)methyl)-3-methoxybenzyl)piperazin-1-yl)ethyl)amino)-4-oxobutanoic Acid], for which the EC50 was 1180 nM with Mouse splenocytes; above 10 nM in assay [1] (setting [2]); 1360 nM in assay [1] (setting [3]); 187 nM on hTLR7; 662 nM on mTLR7.

Regarding `CCOc1nc(N)c2nc(O)n(Cc3ccc(CNCCCC[C@H](N)C(=O)O)cc3OC)c2n1` [Compound 114, N^6-(4-((6-amino-2-ethoxy-8-hydroxy-9H-purin-9-yl)methyl)-3-methoxybenzyl)-L-lysine], the EC50 with Mouse splenocytes is 901 nM; in assay [1] (setting [2]) it was above 10 nM; in assay [1] (setting [3]), 1750 nM; on hTLR7, 261 nM; on mTLR7 it was 1520 nM.

Consider `CCOc1nc(N)c2nc(O)n(Cc3ccc(CNCCCCCC(=O)O)cc3OC)c2n1` [Compound 115, 6-((4-((6-amino-2-ethoxy-8-hydroxy-9H-purin-9-yl)methyl)-3-methoxybenzyl)-amino)hexanoic Acid], for which the EC50 was 3240 nM in the assay on Mouse splenocytes; above 10 nM in assay [1] (setting [2]); 2810 nM in assay [1] (setting [3]); 277 nM on hTLR7; 1600 nM on mTLR7.
